Measured values from the Deep4Chem optical property database.
Values belong to the molecule of their own block, whether it stands above or below them.

Experiment: solvent given as SMILES

absorption maximum (in ClC(Cl)Cl): 424 nm
Compound: CCCCN1c2ccccc2Sc2cc(/C=C\c3cc(=O)oc4cc(C)ccc34)ccc21

Compound: CC(C)[Si]1(C(C)C)c2cc(C=O)ccc2-c2ccc(N(C)C)cc21
absorption maximum (in C1CCCCC1): 390 nm
absorption maximum (in CC#N): 391 nm
absorption maximum (in CCO): 395 nm
absorption maximum (in CCOCC): 384 nm
absorption maximum (in CS(C)=O): 400 nm
absorption maximum (in ClCCl): 397 nm
absorption maximum (in c1ccccc1): 392 nm

absorption maximum (in CS(C)=O): 348 nm
Compound: Cc1cccc(-c2nc3sc4ccccc4c3s2)c1

absorption maximum (in C1CCCCC1): 336 nm
Compound: COc1ccc(C2=C(c3ccc(OC)cc3)C(C)(C)c3ccc4ccccc4c32)cc1

Compound: CCN1C(=O)C(C2C(=O)c3c4ccccc4cc4cc5ccccc5c2c34)C(=O)N(CC)C1=S (stereo not given)
absorption maximum (in ClCCl): 532.11 nm

absorption maximum (in CCO): 379 nm
Compound: Cc1c(COC(=O)Cc2cccc3ccccc23)n2c(OCC(=O)Cc3cccc4ccccc34)c(C)c(=O)n2c1=O

absorption maximum (in CO): 382 nm
Compound: O=C(O)CCCOc1cc2ccc3cccc4ccc(c1)c2c34

absorption maximum (in CS(C)=O): 358 nm
Compound: COc1cc(-c2nc3sc4ccccc4c3s2)cc(OC)c1OC

absorption maximum (in C1CCOC1): 376 nm
absorption maximum (in CC#N): 368 nm
absorption maximum (in CO): 360 nm
absorption maximum (in ClCCl): 377 nm
Compound: Clc1ccc(/C=C/c2ccc(-c3nc4c5cccnc5c5ncccc5c4[nH]3)cc2)cc1

absorption maximum (in O): 455 nm
Compound: CCOC(=O)CCCCCn1c2ccc(N)cc2c(=O)c2cc(N)ccc21

absorption maximum (in ClCCl): 494 nm
Compound: c1ccc(C2=C(c3ccccc3)c3cccc4c3c(cc3nc5ccccc5nc34)O2)cc1

absorption maximum (in ClC(Cl)Cl): 541 nm
Compound: Oc1ccc(C2=[N+]3C(=C(c4ccccc4)c4cccn4[B-]3(F)F)C=C2)cc1

absorption maximum (in CC#N): 340 nm
Compound: COc1ccc(-n2nc(C#N)c(N3CCCCC3)n2)cc1

Compound: Cc1ccc(C2=[N+]3C(=Cc4ccc(C)n4[B-]3(F)F)c3ccccc32)[nH]1
absorption maximum (in C1CCOC1): 599 nm
absorption maximum (in CC#N): 592 nm
absorption maximum (in CCCCCC): 602 nm
absorption maximum (in CO): 595 nm
absorption maximum (in Cc1ccccc1): 606 nm
absorption maximum (in ClCCl): 600 nm

Compound: c1ccc(N(c2ccccc2)c2c3ccccc3cc3ccccc23)cc1
absorption maximum (in Cc1ccccc1): 428 nm

absorption maximum (in ClCCl): 350 nm
Compound: C(S/C=C/c1ccc(/C=C/SC=C2CCCC2)cc1)=C1CCCC1

absorption maximum (in CCO): 366 nm
Compound: Nc1cc2oc3cc(O)c(F)cc3c(=O)c2cc1F

absorption maximum (in ClCCl): 281 nm
Compound: COc1ccc(-c2cc(-c3ccc(C#N)cc3)nn2C)cc1

absorption maximum (in CC#N): 438 nm
Compound: C(=C\N1CCCC1)/c1nc2ccccc2nc1-c1ccccc1

absorption maximum (in CO): 433 nm
Compound: ClC1=CN2C[n+]3cc(Cl)ccc3N=C2C=C1

absorption maximum (in CCO): 382 nm
Compound: CN(C)c1cc2sc3cc(N(C)C)c(F)cc3c(=O)c2cc1F

absorption maximum (in CS(C)=O): 549 nm
Compound: CN1/C(=C/C=C/C2=[N+](C)c3ccccc3C2(C)C)Sc2ccccc21

absorption maximum (in C1CCOC1): 358 nm
Compound: N#Cc1c(N2CCCCC2)cc(-c2ccccc2)c2c1Cc1ccccc1-2

Compound: O=C(N/N=C/c1ccccc1O)c1ccc([N+](=O)[O-])cc1
absorption maximum (in C1CCOC1): 338 nm
absorption maximum (in CC#N): 339 nm
absorption maximum (in CC(C)=O): 350 nm
absorption maximum (in CCO): 345 nm
absorption maximum (in CN(C)C=O): 380 nm
absorption maximum (in CS(C)=O): 342 nm
absorption maximum (in ClCCl): 340 nm

absorption maximum (in CCO): 462 nm
Compound: CCCCOC(=O)/C(C#N)=C1\C(=O)C([O-])=C1C=C1N(C)c2ccccc2C1(C)C

Compound: O=S1(=O)C2=C(c3ccc(N(c4ccccc4)c4ccccc4)cc31)C1(C3=C(c4ccccc41)S(=O)(=O)c1cc(N(c4ccccc4)c4ccccc4)ccc13)c1ccccc12
absorption maximum (in C1CCOC1): 443 nm
absorption maximum (in CC#N): 446 nm
absorption maximum (in CCCCCC): 434 nm
absorption maximum (in Cc1ccccc1): 450 nm
absorption maximum (in ClCCl): 451 nm

Compound: c1ccc(-c2nc3ccccc3nc2-c2ccc(-n3c4ccccc4c4ccccc43)cc2)cc1
absorption maximum (in Cc1ccccc1): 345 nm

absorption maximum (in ClCCl): 440 nm
Compound: CCN(CC)c1ccc2cc(-c3nc4cc(C(=O)Nc5cccc(C)c5)ccc4o3)c(=O)oc2c1

absorption maximum (in ClC(Cl)Cl): 425 nm
absorption maximum (in O): 421 nm
Compound: C/C=C/C=C/C1=NC(=C\c2ccc(O)cc2)/C(=O)N1C

absorption maximum (in C1CCCCC1): 302 nm
Compound: C=Cc1ccc(OC)cc1

absorption maximum (in ClCCl): 365 nm
Compound: CC(C)(C)c1ccc(-n2c(-c3ccc(-c4cccc(-c5c(-c6ccccc6)nc6ccccn56)c4)cc3)nc3c4ccccc4c4ccccc4c32)cc1

absorption maximum (in ClCCl): 353 nm
Compound: CC(C)(C)c1ccc2c(c1)c1cc(C(C)(C)C)ccc1n2-c1ccc(-c2ccc3c(c2)C2(c4cc(-c5ccc(-n6c7ccc(C(C)(C)C)cc7c7cc(C(C)(C)C)ccc76)cc5)ccc4-3)c3ccccc3S(=O)(=O)c3ccccc32)cc1

absorption maximum (in ClCCl): 389 nm
Compound: CCCCCCN1C(=O)c2cccc3c(-c4ccc(-c5cc(-c6ccc(Cl)cc6)nn5-c5ccccc5)s4)ccc(c23)C1=O

Compound: CC(C)(C)c1ccccc1N(c1ccccc1)c1ccc(S(=O)(=O)c2ccc(S(=O)(=O)c3ccc(N(c4ccccc4)c4ccccc4C(C)(C)C)cc3)cc2)cc1
absorption maximum (in Cc1ccccc1): 348 nm

absorption maximum (in C1CCOC1): 353 nm
absorption maximum (in CC#N): 353 nm
absorption maximum (in CCCCCC): 352 nm
Compound: COCCN1C(=O)/C(=C/c2cccc(N(C)C)c2)N=C1C

absorption maximum (in CC#N): 415 nm
Compound: COc1cc2cc(/C=C/c3ccc(/C=C/c4ccc(/C=C(\C#N)C(=O)O)cc4)cc3)c(=O)oc2cc1OC

Compound: CC(C)[Si](C#Cc1c2ccc(C(C)(C)C)cc2c(C#Cc2c3ccc(C(C)(C)C)cc3c(C#C[Si](C(C)C)(C(C)C)C(C)C)c3ccc(C(C)(C)C)cc23)c2ccc(C(C)(C)C)cc12)(C(C)C)C(C)C
absorption maximum (in Cc1ccccc1): 523 nm

absorption maximum (in CCO): 440 nm
Compound: CC1(C)Nc2cc3nc4cc(F)c(F)cc4nc3cc2N1

absorption maximum (in C1CCOC1): 341 nm
Compound: CC(C)(C)c1ccc(-c2c(-c3ccc(-n4c5ccccc5c5ccccc54)cc3)cc(-c3ccc(-n4c5ccccc5c5ccccc54)cc3)c(-c3ccc(C(C)(C)C)cc3)c2-c2ccc(C(C)(C)C)cc2)cc1

Compound: CCC1=C(C)C2=C(C)c3cc(I)c(I)n3[B-](F)(F)[N+]2=C1C
absorption maximum (in C1CCCCC1): 532 nm
absorption maximum (in CC(C)=O): 515.5 nm
absorption maximum (in CCO): 520 nm
absorption maximum (in CCOC(C)=O): 518.5 nm
absorption maximum (in CO): 518 nm
absorption maximum (in OCC(F)(F)F): 511.5 nm

absorption maximum (in CCO): 604 nm
absorption maximum (in ClC(Cl)Cl): 616 nm
absorption maximum (in ClCCl): 615 nm
Compound: CCC(CC)c1ccc2cc3c([o+]c2c1)/C(=C/Cc1ccccc1)CCC3

absorption maximum (in CCO): 376 nm
Compound: Cc1ccc(C(=O)OCc2c(C)c(=O)n3c(=O)c(C)c(C)n23)cc1

absorption maximum (in CC#N): 368 nm
Compound: COc1ccc(/C=C/c2nc3c4ccccc4c4ccccc4c3o2)cc1

absorption maximum (in ClCCl): 383 nm
Compound: N#Cc1ccc(-c2cn3cc(-c4ccccc4)c[n+]3[n-]2)cc1

absorption maximum (in C1CCCCC1): 417 nm
absorption maximum (in CC#N): 416 nm
absorption maximum (in CO): 414 nm
absorption maximum (in ClCCl): 418 nm
Compound: COc1c2ccccc2c(OC)c2c1c1c(C)ccc(OC)c1n2C

Compound: CCN1\C(=C/C=C/C=C/C2=[N+](CC)c3ccc4ccccc4c3C2(C)C)C(C)(C)c2c1ccc1ccccc21
absorption maximum (in C1CCOC1): 684 nm
absorption maximum (in CC#N): 677 nm
absorption maximum (in CC(C)=O): 680 nm
absorption maximum (in CCO): 682 nm
absorption maximum (in CN(C)C=O): 683 nm
absorption maximum (in CO): 678 nm
absorption maximum (in CS(C)=O): 686 nm
absorption maximum (in ClCCl): 693 nm

Compound: F[B-]1(F)Oc2ccccc2-c2cc(-n3c4ccc(-c5ccccc5)cc4c4cc(-c5ccccc5)ccc43)cc[n+]21
absorption maximum (in Cc1ccccc1): 374 nm

Compound: N#Cc1c(N2c3ccccc3C(c3ccccc3)(c3ccccc3)c3ccccc32)cccc1N1c2ccccc2C(c2ccccc2)(c2ccccc2)c2ccccc21
absorption maximum (in Cc1ccccc1): 369 nm

Compound: CC1(C)c2ccccc2N(c2ccc(-c3ncc(C#N)cn3)cc2)c2ccccc21
absorption maximum (in Cc1ccccc1): 396 nm

Compound: Fc1cccc(F)c1[B-]1(c2c(F)cccc2F)Oc2c(ccc3c4c(ccc23)C=[N+](c2ccccc2)[B-](c2c(F)cccc2F)(c2c(F)cccc2F)O4)C=[N+]1c1ccccc1
absorption maximum (in Cc1ccccc1): 538 nm
absorption maximum (in ClCCl): 534 nm

absorption maximum (in C1CCCCC1): 291 nm
absorption maximum (in CC#N): 290 nm
absorption maximum (in CO): 290 nm
absorption maximum (in O): 289 nm
Compound: CCOC(=O)COc1ccc(C(c2c(C)[nH]c3ccccc23)c2c(C)[nH]c3ccccc23)cc1

absorption maximum (in C1CCCCC1): 298 nm
absorption maximum (in C1CCOC1): 298 nm
absorption maximum (in C1COCCO1): 297 nm
absorption maximum (in CC#N): 295 nm
absorption maximum (in CCCCCC): 297 nm
absorption maximum (in CO): 293 nm
absorption maximum (in ClC(Cl)Cl): 300 nm
Compound: F[B-]1(F)n2ccnc2-c2cccc[n+]21

Compound: CC1(C)c2ccccc2N(c2ccc(-c3nc(C#N)c(C#N)nc3-c3ccc(N4c5ccccc5C(C)(C)c5ccccc54)cc3)cc2)c2ccccc21
absorption maximum (in Cc1ccccc1): 436 nm

Compound: Cc1cc(C)c(B(c2c(C)cc(C)cc2C)c2c(C)cc(-n3c4ccc(N(c5ccccc5)c5ccccc5)cc4c4cc(N(c5ccccc5)c5ccccc5)ccc43)cc2C)c(C)c1
absorption maximum (in Cc1ccccc1): 387 nm

absorption maximum (in ClC(Cl)Cl): 487 nm
Compound: CCCCCCCCCCCCCCCCCCOc1ccc(C#Cc2cc3nc4c(OCCCCCCCCCCCC)cc5c6cc(OCCCCCCCCCCCC)c(OCCCCCCCCCCCC)cc6c6cc(OCCCCCCCCCCCC)c(OCCCCCCCCCCCC)cc6c5c4nc3cc2C#Cc2ccc(OCCCCCCCCCCCCCCCCCC)cc2)cc1

absorption maximum (in O): 306 nm
Compound: O=c1ccc2ccccc2o1

Compound: CN(C)c1ccc(/C=C/C=N/N=C/c2ccc3ccc4cccc5ccc2c3c45)cc1
absorption maximum (in CC#N): 426 nm
absorption maximum (in CC(C)(C)O): 420 nm
absorption maximum (in CC(C)=O): 418 nm
absorption maximum (in CC(C)O): 432 nm
absorption maximum (in CCCCO): 433 nm
absorption maximum (in CO): 434 nm
absorption maximum (in CS(C)=O): 438 nm
absorption maximum (in ClC(Cl)Cl): 433 nm
absorption maximum (in ClCCl): 430 nm
absorption maximum (in O): 420 nm

absorption maximum (in ClCCl): 727 nm
Compound: CCc1ccc(C2=[N+]3C(=Cc4c5ccc(OC)cc5c(-c5ccc(CC)s5)n4[B-]3(F)F)c3ccc(OC)cc32)s1

Compound: CCN1c2ccc(/C=N/Nc3ccccn3)cc2Sc2cc(-c3ccccc3)ccc21
absorption maximum (in C1CCOC1): 379 nm
absorption maximum (in CS(C)=O): 387 nm
absorption maximum (in Cc1ccccc1): 382 nm
absorption maximum (in ClCCl): 384 nm
